Like-named read-outs stand apart in the source and are kept apart here.
Key:
NF-κB [1] = assay: Measurement of NF-κB activation using THP1-Blue NF-κB cells (SEAP); assay type: cell-based; conditions: for activity at 5 µM: 20 h, two point normalized, compound 1 as 200%; for NF-κB activity (SAR discussion, in words): evaluated in both the presence and absence of LPS; for NF-κB activity when tested alone (in words): compound alone, without LPS
NF-κB [2] = assay: cell-based NF-κB FRET assay; conditions: compound + LPS; two point normalized, compound 1 as 200%, LPS (10 ng/mL) as 100%
Text: Site A was assigned the 4-substituent of thiazole ring, site B was the thiazole ring itself, site C was the central amide bond in the structure, site D was the benzene ring bearing 1,4-carboxyl and sulfamoyl group, site E was the sulfonamide functional group and site F was the amide substituent on the sulfamoyl group.

THP-1 cells = assay: Cell viability assay (MTT); assay type: cell-based; conditions: compound 5 μM alone, 18 h, normalized to DMSO as 100%
Outline: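 THP-1 cells in RPMI/10% FBS got compound at a final 5 μM (0.05% DMSO) for 18 h. MTT (0.5 mg/mL) was then added for 4 to 6 h, followed by SDS/HCl lysis overnight. Absorbance was read at 570 nm against 650 nm reference.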

[3] = compound 5 μM + LPS, LPS (10 ng/mL) as 100%, read-out: NF-κB SEAP Compound + LPS % Activation
[4] = compound 5 μM alone, LPS or DMSO as 100%, read-out: NF-κB SEAP Compound alone % Activation

Compound: CCCC#Cc1sc(NC(=O)c2ccc(S(=O)(=O)N3CCCCC3)cc2)nc1-c1cc(C)ccc1Br [Compound 64, N-(4-(2-bromo-5-methylphenyl)-5-(pent-1-yn-1-yl)thiazol-2-yl)-4-(piperidin-1-ylsulfonyl)benzamide]
- activity at 5 µM (NF-κB [1]; [3]): 287%
- activity at 5 µM (NF-κB [1]; [4]): 348%
- NF-κB activity (SAR discussion, in words) (NF-κB [1]): very potent and showed better potency than compound 1
- NF-κB FRET Compound + LPS % Activation (NF-κB [2]): 196.14%
- MTT Compound alone % Viability (THP-1 cells): 101.42%

Compound: CCCCCc1sc(NC(=O)c2ccc(S(=O)(=O)N3CCCCC3)cc2)nc1-c1cc(C)ccc1C [Compound 18t, N-(4-(2,5-dimethylphenyl)-5-pentylthiazol-2-yl)-4-(piperidin-1-ylsulfonyl)benzamide]
- activity at 5 µM (NF-κB [1]; [3]): 132%
- activity at 5 µM (NF-κB [1]; [4]): 119%
- NF-κB activity (SAR discussion, in words) (NF-κB [1]): loss in activity
- NF-κB FRET Compound + LPS % Activation (NF-κB [2]): 213.25%
- MTT Compound alone % Viability (THP-1 cells): 110.37%

Compound: C#Cc1sc(NC(=O)c2ccc(S(=O)(=O)N3CCCCC3)cc2)nc1-c1cc(C)ccc1C [Compound 18o, N-(4-(2,5-dimethylphenyl)-5-ethynylthiazol-2-yl)-4-(piperidin-1-ylsulfonyl)benzamide]
- activity at 5 µM (NF-κB [1]; [3]): 153%
- activity at 5 µM (NF-κB [1]; [4]): 118%
- NF-κB activity (SAR discussion, in words) (NF-κB [1]): weak activity
- NF-κB FRET Compound + LPS % Activation (NF-κB [2]): 101.71%
- MTT Compound alone % Viability (THP-1 cells): 111.27%

Compound: CCN(CC)c1sc(NC(=O)c2ccc(S(=O)(=O)N3CCCCC3)cc2)nc1-c1cc(C)ccc1C [Compound 18g, N-(5-(diethylamino)-4-(2,5-dimethylphenyl)thiazol-2-yl)-4-(piperidin-1-ylsulfonyl)benzamide]
- activity at 5 µM (NF-κB [1]; [3]): 98.1%
- activity at 5 µM (NF-κB [1]; [4]): 98%
- NF-κB activity (SAR discussion, in words) (NF-κB [1]): completely inactive
- NF-κB FRET Compound + LPS % Activation (NF-κB [2]): 92.64%
- MTT Compound alone % Viability (THP-1 cells): 94.30%

Compound: Cc1ccccc1-c1csc(NC(=O)c2ccc(S(=O)(=O)N3CCCCC3)cc2)n1 [Compound 12b, 4-(piperidin-1-ylsulfonyl)-N-(4-(o-tolyl)thiazol-2-yl)benzamide]
- activity at 5 µM (NF-κB [1]; [3]): 105%
- activity at 5 µM (NF-κB [1]; [4]): 99.2%
- NF-κB activity (SAR discussion, in words) (NF-κB [1]): inactive
- NF-κB FRET Compound + LPS % Activation (NF-κB [2]): 100.13%
- MTT Compound alone % Viability (THP-1 cells): 95.69%

Compound: Cc1ccc(C)c(-c2csc(NC(=O)c3ccc(S(=O)(=O)N4CCC5(CC4)N=N5)cc3)n2)c1 [Compound 72e, 4-((1,2,6-triazaspiro[2.5]oct-1-en-6-yl)sulfonyl)-N-(4-(2,5-dimethylphenyl)thiazol-2-yl)benzamide]
- activity at 5 µM (NF-κB [1]; [3]): 168%
- activity at 5 µM (NF-κB [1]; [4]): 144%
- NF-κB activity (SAR discussion, in words) (NF-κB [1]): active
- NF-κB FRET Compound + LPS % Activation (NF-κB [2]): 168.82%
- MTT Compound alone % Viability (THP-1 cells): 84.40%

Compound: Cc1ccc(-c2csc(NC(=O)c3ccc(S(=O)(=O)N4CCCCC4)cc3)n2)cc1C [Compound 12n, N-(4-(3,4-dimethylphenyl)thiazol-2-yl)-4-(piperidin-1-ylsulfonyl)benzamide]
- activity at 5 µM (NF-κB [1]; [3]): 98%
- activity at 5 µM (NF-κB [1]; [4]): 98.7%
- NF-κB activity (SAR discussion, in words) (NF-κB [1]): inactive
- NF-κB FRET Compound + LPS % Activation (NF-κB [2]): 128.01%
- MTT Compound alone % Viability (THP-1 cells): 97.59%

Compound: Cc1ccc(C)c(-c2csc(NC(=O)c3ccc(SC4CCCCC4)cc3)n2)c1 [Compound 49a, 4-(cyclohexylthio)-N-(4-(2,5-dimethylphenyl)thiazol-2-yl)benzamide]
- activity at 5 µM (NF-κB [1]; [3]): 114%
- activity at 5 µM (NF-κB [1]; [4]): 99.7%
- NF-κB activity (SAR discussion, in words) (NF-κB [1]): none of these modifications at site D or E were tolerated
- NF-κB FRET Compound + LPS % Activation (NF-κB [2]): 139.79%
- MTT Compound alone % Viability (THP-1 cells): 85.22%

Compound: Cc1ccc(N=[N+]=[N-])c(-c2csc(NC(=O)c3ccc(S(=O)(=O)N4CCCCC4)cc3)n2)c1 [Compound 70, N-(4-(2-azido-5-methylphenyl)thiazol-2-yl)-4-(piperidin-1-ylsulfonyl)benzamide]
- activity at 5 µM (NF-κB [1]; [3]): 97.3%
- activity at 5 µM (NF-κB [1]; [4]): 101%
- NF-κB activity (SAR discussion, in words) (NF-κB [1]): inactive
- NF-κB FRET Compound + LPS % Activation (NF-κB [2]): 70.93%
- MTT Compound alone % Viability (THP-1 cells): 77.84%

Compound: C#CCNS(=O)(=O)c1ccc(C(=O)Nc2nc(-c3cc(C)ccc3C)cs2)cc1 [Compound 72a, N-(4-(2,5-dimethylphenyl)thiazol-2-yl)-4-(N-(prop-2-yn-1-yl)sulfamoyl)benzamide]
- activity at 5 µM (NF-κB [1]; [3]): 102%
- activity at 5 µM (NF-κB [1]; [4]): 99.2%
- NF-κB activity (SAR discussion, in words) (NF-κB [1]): lost their activity
- NF-κB FRET Compound + LPS % Activation (NF-κB [2]): 121.36%
- MTT Compound alone % Viability (THP-1 cells): 87.46%

Compound: Cc1cccc(-c2csc(NC(=O)c3ccc(S(=O)(=O)N4CCCCC4)cc3)n2)c1C [Compound 12l, N-(4-(2,3-dimethylphenyl)thiazol-2-yl)-4-(piperidin-1-ylsulfonyl)benzamide]
- activity at 5 µM (NF-κB [1]; [3]): 157%
- activity at 5 µM (NF-κB [1]; [4]): 195%
- NF-κB activity (SAR discussion, in words) (NF-κB [1]): retained activity
- NF-κB FRET Compound + LPS % Activation (NF-κB [2]): 206.60%
- MTT Compound alone % Viability (THP-1 cells): 98.37%

Compound: CCCC#Cc1sc(NC(=O)c2ccc(S(=O)(=O)N3CCCCC3)cc2)nc1-c1cc(C)ccc1C [Compound 18q, N-(4-(2,5-dimethylphenyl)-5-(pent-1-yn-1-yl)thiazol-2-yl)-4-(piperidin-1-ylsulfonyl)benzamide]
- activity at 5 µM (NF-κB [1]; [3]): 242%
- activity at 5 µM (NF-κB [1]; [4]): 393%
- NF-κB activity when tested alone (in words) (NF-κB [1]): very potent
- NF-κB activity (SAR discussion, in words) (NF-κB [1]): most potent
- NF-κB FRET Compound + LPS % Activation (NF-κB [2]): 215.78%
- MTT Compound alone % Viability (THP-1 cells): 105.84%

Compound: CCC#Cc1sc(NC(=O)c2ccc(S(=O)(=O)N3CCCCC3)cc2)nc1-c1cc(C)ccc1C [Compound 18p, N-(5-(but-1-yn-1-yl)-4-(2,5-dimethylphenyl)thiazol-2-yl)-4-(piperidin-1-ylsulfonyl)benzamide]
- activity at 5 µM (NF-κB [1]; [3]): 192%
- activity at 5 µM (NF-κB [1]; [4]): 291%
- NF-κB activity when tested alone (in words) (NF-κB [1]): very potent
- NF-κB FRET Compound + LPS % Activation (NF-κB [2]): 210.21%
- MTT Compound alone % Viability (THP-1 cells): 120.17%

Compound: Cc1cccc(-c2csc(NC(=O)c3ccc(S(=O)(=O)N4CCCCC4)cc3)n2)c1 [Compound 12c, 4-(piperidin-1-ylsulfonyl)-N-(4-(m-tolyl)thiazol-2-yl)benzamide]
- activity at 5 µM (NF-κB [1]; [3]): 98.6%
- activity at 5 µM (NF-κB [1]; [4]): 99.5%
- NF-κB activity (SAR discussion, in words) (NF-κB [1]): inactive
- NF-κB FRET Compound + LPS % Activation (NF-κB [2]): 78.98%
- MTT Compound alone % Viability (THP-1 cells): 96.06%

Compound: Cc1ccc(C)c(-c2csc(NC(=O)c3ccc(S(=O)(=O)NC4CCCCC4)cc3)n2)c1 [Compound 58e, 4-(N-cyclohexylsulfamoyl)-N-(4-(2,5-dimethylphenyl)thiazol-2-yl)benzamide]
- activity at 5 µM (NF-κB [1]; [3]): 94.5%
- activity at 5 µM (NF-κB [1]; [4]): 98.3%
- NF-κB activity (SAR discussion, in words) (NF-κB [1]): inactive
- NF-κB FRET Compound + LPS % Activation (NF-κB [2]): 52.23%
- MTT Compound alone % Viability (THP-1 cells): 93.65%

Compound: Cc1ccc(C)c(-c2csc(NCc3ccc(S(=O)(=O)N4CCCCC4)cc3)n2)c1 [Compound 34a, 4-(2,5-dimethylphenyl)-N-(4-(piperidin-1-ylsulfonyl)benzyl)thiazol-2-amine]
- activity at 5 µM (NF-κB [1]; [3]): 102%
- activity at 5 µM (NF-κB [1]; [4]): 99.1%
- NF-κB activity (SAR discussion, in words) (NF-κB [1]): inactive
- NF-κB FRET Compound + LPS % Activation (NF-κB [2]): 106.53%
- MTT Compound alone % Viability (THP-1 cells): 85.48%

Compound: C#CC1CCN(S(=O)(=O)c2ccc(C(=O)Nc3nc(-c4cc(N=[N+]=[N-])ccc4C)cs3)cc2)CC1 [Compound 73, N-(4-(5-azido-2-methylphenyl)thiazol-2-yl)-4-((4-ethynylpiperidin-1-yl)sulfonyl)benzamide]
- activity at 5 µM (NF-κB [1]; [3]): 398%
- activity at 5 µM (NF-κB [1]; [4]): 363%
- NF-κB FRET Compound + LPS % Activation (NF-κB [2]): 197.10%
- MTT Compound alone % Viability (THP-1 cells): 84.53%

Compound: Cc1ccc(C)c(-c2csc(NC(=O)c3ccc(S(=O)(=O)N4CCNCC4)cc3)n2)c1 [Compound 58i, N-(4-(2,5-dimethylphenyl)thiazol-2-yl)-4-(piperazin-1-ylsulfonyl)benzamide]
- activity at 5 µM (NF-κB [1]; [3]): 104%
- activity at 5 µM (NF-κB [1]; [4]): 101%
- NF-κB activity (SAR discussion, in words) (NF-κB [1]): inactive
- NF-κB FRET Compound + LPS % Activation (NF-κB [2]): 101.27%
- MTT Compound alone % Viability (THP-1 cells): 75.86%

Source: patent US12091393B2, “Small molecule vaccine adjuvant for enhancing or prolonging immune response” (The Regents of the University of California, priority 2018, dated 2024)
